The target of one assay is canine TRPM8 (Canis lupus familiaris, UniProt Q1A7N1). Description: In Vitro Canine TRPM8 Functional Assay (intracellular Ca2+ fluorescence, icilin activation). Format: cell-based. The conditions noted are these: HEK293 cells stably expressing canine TRPM8; for % Inh @ 0.2 (μM) / inhibition at 0.2 µM: 0.2 μM compound, icilin challenge; for IC50: icilin challenge at ~80% maximal response, eight-point dose-response, single determinations, read-out: IC50 (μM) @ 0.2. On the procedure:
The functional activity of compounds of the formula (I) was determined by measuring changes in intracellular calcium concentration using a Ca^2+-sensitive fluorescent dye. The changes in fluorescent signal were monitored by a fluorescence plate reader, either a FLIPR™ (Molecular Devices) or FDSS (Hamamatsu).
At 24 hrs prior to assay, HEK293 cells stably expressing canine TRPM8 were seeded in culture medium in black wall, clear-base poly-D-lysine coated 384-well plates (BD Biosciences, NJ, USA) and grown overnight in 5% CO2 at 37° C. On assay day, growth media was removed and cells were loaded with Calcium 3 Dye (Molecular Devices) for 35 min at 37° C., under 5% CO2 and then for 25 min at room temperature and atmosphere. Subsequently, cells were tested for agonist-induced increases in intracellular Ca^2+ levels using FLIPR™ or FDSS. Cells were challenged with a compound of the Formula (I) (at varying concentrations) and intracellular Ca^2+ was measured for 5 min prior to the addition of icilin to all wells to achieve a final concentration that produces approximately an 80% maximal response. EC50 or IC50 values for compounds of the present invention were determined from eight-point dose-response studies. Curves were generated using the average of quadruplicate wells for each data point.

For assay [1], the system named is icilin-induced "wet-dog" shakes. The experiment in a line: Reversal of icilin-induced "wet-dog" shaking behavior in rats. Format: in vivo. As to conditions: 10 mg/kg p.o., 1 h post-icilin, relative to WDS count prior to test compound dose. The procedure: Male Sprague Dawley rats (220-450 g, Charles River Labs, n=6-9/treatment) may be used to evaluate the ability of selected compounds of the formula (I) to block icilin-induced “wet-dog” shakes (WDS). Compounds of the formula (I) may be administered in an appropriate vehicle, such as hydroxypropyl-β-cyclodextrin (HPβCD), methocellulose, 10% Solutol, or H2O, or the like, by the appropriate route, i.p. or p.o., 30-120 minutes before icilin. Icilin may be administered in PEG-400 or 10% solutol/H2O, at 1.0 or 3.0 mg/kg, i.p. and spontaneous “wet-dog” shakes may be counted 10-20 minutes post-icilin.
Compounds of the present invention capable of inhibiting the onset of icilin-induced “wet-dog” shaking behavior may also be assessed for their ability to reverse an existing icilin-induced “wet-dog” shaking behavior. In this paradigm, icilin-induced shaking is counted for 10 minutes followed by administration of a compound of the present invention in a suitable vehicle such as hydroxypropyl methylcellulose, hydroxypropyl-β-cyclodextrin or 10% Solutol in water. The diminution of shaking behavior is represented as a percent inhibition relative to icilin-induced shakes in the absence of test compound administration, as described by the following formula: % Inhibition=[1−(WDS count following test compound dose/WDS count prior to test compound dose)]×100.

Chain of canine TRPM8 (Q1A7N1 1-1104): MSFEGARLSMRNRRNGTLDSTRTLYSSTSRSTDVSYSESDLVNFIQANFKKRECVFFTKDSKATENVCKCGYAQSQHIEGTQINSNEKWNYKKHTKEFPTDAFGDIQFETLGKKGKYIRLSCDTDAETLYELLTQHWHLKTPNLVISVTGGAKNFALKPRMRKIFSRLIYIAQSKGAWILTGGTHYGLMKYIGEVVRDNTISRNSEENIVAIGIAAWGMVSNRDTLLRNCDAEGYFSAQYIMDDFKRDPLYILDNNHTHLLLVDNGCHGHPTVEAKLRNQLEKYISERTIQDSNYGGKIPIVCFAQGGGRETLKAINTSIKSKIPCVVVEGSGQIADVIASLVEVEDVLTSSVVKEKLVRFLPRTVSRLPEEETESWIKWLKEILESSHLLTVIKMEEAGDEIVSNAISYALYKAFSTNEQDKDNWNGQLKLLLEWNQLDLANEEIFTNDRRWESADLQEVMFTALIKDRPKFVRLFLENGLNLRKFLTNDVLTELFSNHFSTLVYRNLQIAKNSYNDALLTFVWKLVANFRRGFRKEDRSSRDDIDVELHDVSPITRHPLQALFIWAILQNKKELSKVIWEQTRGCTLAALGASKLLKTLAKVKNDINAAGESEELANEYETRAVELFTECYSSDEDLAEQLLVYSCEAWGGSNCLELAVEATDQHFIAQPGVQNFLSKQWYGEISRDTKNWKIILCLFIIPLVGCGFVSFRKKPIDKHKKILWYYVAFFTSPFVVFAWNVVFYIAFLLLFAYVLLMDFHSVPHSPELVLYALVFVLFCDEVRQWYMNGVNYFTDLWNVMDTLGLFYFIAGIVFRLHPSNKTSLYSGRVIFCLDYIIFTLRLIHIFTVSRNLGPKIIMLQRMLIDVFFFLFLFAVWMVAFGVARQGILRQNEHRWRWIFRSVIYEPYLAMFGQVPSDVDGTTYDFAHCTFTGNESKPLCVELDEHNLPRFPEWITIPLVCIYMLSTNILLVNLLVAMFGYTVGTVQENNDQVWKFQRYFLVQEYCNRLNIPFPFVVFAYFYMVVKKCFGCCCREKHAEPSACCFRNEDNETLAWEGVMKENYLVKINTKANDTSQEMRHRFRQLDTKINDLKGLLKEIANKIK

As for `Cc1c(N(Cc2ccc(OC(F)(F)F)cc2)S(=O)(=O)NS(=O)(=O)N2CCN(N3CCCC3)CC2)sc2ccccc12` [Compound 9], the “% Inh @ 0.2 (μM)” value on canine TRPM8 is listed as 9%.
Broadly, the inhibition is the change of the read-out against control, counted positive when it falls. In general, IC50 refers to the concentration at which inhibition is half-maximal. On to `Cc1c(N(Cc2ccc(OC(F)(F)F)cc2)S(=O)(=O)N2CCC(C(=O)NCCN(C)C)CC2)sc2ccccc12` [Compound 12, 1-[(3-Methyl-benzo[b]thiophen-2-yl)-(4-trifluoromethoxy-benzyl)-sulfamoyl]-piperidine-4-carboxylic acid (2-dimethylamino-ethyl)-amide], for which, at canine TRPM8, the inhibition at 0.2 µM came out at 70% and the half-maximal inhibitory concentration (IC50) turned out to be 0.061 µM.
For the compound “4-Methyl-piperazine-1-sulfonic acid (3-methyl-benzo[b]thiophen-2-yl)-(4-trifluoromethoxy-benzyl)-sulfamoyl]-amide [Compound 6]”, at canine TRPM8, the “% Inh @ 0.2 (μM)” value was 90% and the IC50 is 0.046 µM.
In the case of “4-(3-Methyl-butyl)-piperazine-1-sulfonic acid (3-methyl-benzo[b]thiophen-2-yl)-(4-trifluoromethoxy-benzyl)-sulfamoyl]-amide [Compound 5]”, at canine TRPM8, the IC50 amounted to 0.071 µM.
Consider `Cc1c(N(Cc2ccc(OC(F)(F)F)cc2)S(=O)(=O)N2CCC(C(=O)N3CCN(C)CC3)CC2)sc2ccccc12` [Compound 11], for which the “% Inh @ 0.2 (μM)” value on canine TRPM8 is reported as 30%.
Still for that read-out and setting: then `Cc1c(N(Cc2ccc(OC(F)(F)F)cc2)S(=O)(=O)NS(=O)(=O)N2CCNCC2)sc2ccccc12` [Compound 3], with 19%.
With `O=C(O)CCCNS(=O)(=O)N(Cc1ccc(F)c(C(F)(F)F)c1)c1sc2ccccc2c1Br` [Compound 15, N-(3-Bromo-benzo[b]thiophen-2-yl)-N-(4-fluoro-3-trifluorobenzyl)-(N-butyric acid)-sulfonamide], at canine TRPM8, the “% Inh @ 0.2 (μM)” value was determined as 101% and the IC50 came to 0.018 µM.
Consider `Cc1c(N(Cc2ccc(OC(F)(F)F)cc2)S(=O)(=O)NS(=O)(=O)N2CCC(N(C)C)CC2)sc2ccccc12` [Compound 8], for which the “% Inh @ 0.2 (μM)” value at canine TRPM8 is 36%.
For `Cc1c(N(Cc2ccc(F)c(C(F)(F)F)c2)S(=O)(=O)NCCCC(=O)O)sc2ccccc12` [Compound 13, N-(4-Fluoro-3-trifluoromethyl-benzyl)-N-(3-methyl-benzo[b]-thiophen-2-yl)-N′-(butyric acid)-sulfonamide], at canine TRPM8, the “% Inh @ 0.2 (μM)” value is 72% and the IC50 turned out to be 0.062 µM.
In the case of `Cc1c(N(Cc2ccc(OC(F)(F)F)cc2)S(=O)(=O)N2CCCCC2)sc2ccccc12` [Compound 1, Piperidine-1-sulfonic acid (3-methyl-benzo[b]thiophen-2-yl)-(4-trifluoromethoxy-benzyl)-amide], on canine TRPM8, the inhibition at 0.2 µM was 99% and the IC50 was determined as 0.0036 µM.
Turning to `O=C(O)CNS(=O)(=O)N(Cc1ccc(F)c(C(F)(F)F)c1)c1sc2ccccc2c1Br` [Compound 14, N-(3-Bromo-benzo[b]thiophen-2-yl)-N-(4-fluoro-3-trifluorobenzyl)-(N-acetic acid)-sulfonamide], the “% Inh @ 0.2 (μM)” value on canine TRPM8 was determined as 33%.
As to `O=C(O)CCCCNS(=O)(=O)N(Cc1ccc(F)c(C(F)(F)F)c1)c1sc2ccccc2c1Br` [Compound 16], on canine TRPM8, the “% Inh @ 0.2 (μM)” value turned out to be 101% and the IC50 turned out to be 0.0085 µM.
For “4-Isopropyl-piperazine-1-sulfonic acid (3-methyl-benzo[b]thiophen-2-yl)-(4-trifluoromethoxy-benzyl)-sulfamoyl]-amide [Compound 4]”, the IC50 on canine TRPM8 came out at 0.06 µM.
A word on the % Inhibition: it is the relative decrease from the control value, in per cent. As for `Cc1c(N(Cc2ccc(OC(F)(F)F)cc2)S(=O)(=O)N2CCC(C(=O)O)CC2)sc2ccccc12` [Compound 10, 1-[(3-Methyl-benzo[b]thiophen-2-yl)-(4-trifluoromethoxy-benzyl)-sulfamoyl]-piperidine-4-carboxylic acid], at canine TRPM8, the inhibition at 0.2 µM worked out at 101% and the half-maximal inhibitory concentration (IC50) is 0.0046 µM. For the same compound, the “% Inhibition” value in assay [1] came out at 57%.
For `Cc1c(N(Cc2ccc(OC(F)(F)F)cc2)S(=O)(=O)N2CCN(CC(F)(F)F)CC2)sc2ccccc12` [Compound 7], at canine TRPM8, the “% Inh @ 0.2 (μM)” value was determined as 100% and the IC50 was 0.013 µM.
`Cc1c(N(Cc2ccc(OC(F)(F)F)cc2)S(=O)(=O)N2CCOCC2)sc2ccccc12` [Compound 2, Morpholine-1-sulfonic acid (3-methyl-benzo[b]thiophen-2-yl)-(4-trifluoromethoxy-benzyl)-amide]: at canine TRPM8, the “% Inh @ 0.2 (μM)” value is on record as 100% and the 50% inhibitory concentration (IC50) was 0.0057 µM.

Values taken from patent US9233947B2, “Sulfamides as TRPM8 modulators” (Janssen Pharmaceutica, NV, priority 2008, dated 2016).
